Experimental data reported in patent US20090304663A1, “USE OF GSK-3 INHIBITORS FOR THE TREATMENT OF PROSTATE CANCER” (IMPERIAL INNOVATIONS LIMITED, priority 2004, published 2009).
Entries after “also recorded” stand apart in the source; their conditions may differ. Where two headings read alike, the source gives them in different places.

What was measured:
[1] = test system: panel of 79 commonly studied protein kinases, including several PKC isozymes; details: in words; cited from earlier work
GSK-3 = details: cited from earlier work
human GSK-3 = details: cited from earlier work
[2] = test system: inositol monophosphatases; details: in words; cited from earlier work
22Rv1 cells = assay: cell growth assay, 22Rv1 cells; type: cell-based
[3] = test system: AR transcriptional activity; assay: AR transcriptional activity, MMTV-Luciferase reporter in CWR-R1 cells; type: cell-based
DU145 cells = assay: cell growth assay, DU145 cells; type: cell-based; details: 5 μM SB216763, normal growth medium, 72 h
Method: (§1) The number of cells was counted after 72 h (or after 5 days for LNCaP cells). Experiments were done in triplicate and the error bars indicate standard deviation. […] Cell growth assays were conducted according to Gregory et al, (2001). Briefly, cells (1.5×10^5/well) were plated in 12-well plates (three wells were used for each condition) and allowed to attach overnight. […] Cells were collected by trypsinisation at the indicated times and were counted using a Coulter Counter or using a haemocytometer.

[4] = test system: β-catenin/Tcf transcriptional activity; assay: β-catenin/Tcf transcriptional activity, pOT-Luciferase reporter in CWR-R1 cells; type: cell-based; details: 20 μM SB415286 or 5 μM SB216763, 24 h, normal growth medium
AR protein = AR protein level by western blotting in CWR-R1 cells; type: cell-based; details: 5 μM SB216763 or 20 μM SB415286, 24 h, western blot
Method: FIG. 6: Inhibition of GSK-3 leads to a reduction in AR protein levels. […] Western blots of whole cell extracts were probed for AR (upper panels) and reprobed for γ-tubulin as an internal loading control (lower panels).
Cells were grown to 50-70% confluence in 100 mm dishes or 6-well plates. Lysates were obtained using the following steps: Cells were rinsed in cold TBS, lysed in modified RIP A buffer (0.5% deoxycholate, 1% Triton X-100, 20 mM Tris pH 8.0, 0.1% SDS, 100 mM NaCl, 50 mM NaF) or Nonidet P-40 buffer (1% NP-40, 20 mM Tris pH 8.0, 150 mM NaCl, 50 mM NaF) for 10 min and centrifuged for 12 min at 15,000×g. Cell extracts were then mixed with an equal volume of SDS sample buffer (Sigma Aldrich) and heated to 95° C. for 3 min. For immunoprecipitation (IP) assays in transfected COS7 cells, cell extracts were prepared using NP-40 lysis buffer, incubated with primary antibody for 1 h on ice. This was followed by 30 min incubation with 20 μl protein A/G-agarose (Cambridge Biosciences) on a rotating wheel in the cold room. After 4 washes in lysis buffer and 1 wash in TBS, the beads were resuspended in 10 μl of SDS sample buffer and heated as above. […]

PC3 cells = assay: cell growth assay, PC3 cells; type: cell-based; details: 5 μM SB216763, normal growth medium, 72 h
Method: as §1

CWR-R1 cells = assay: cell growth assay, CWR-R1 cells; type: cell-based; details: for CWR-R1 cell growth (number of cells): 5 μM SB216763 or 20 μM SB415286, up to 6 days
Method: as §1, with “(a) CWR-R1 cells were grown in the presence of carrier (ut). […] The experiment was done twice in triplicate and the error bars indicate standard deviation. […] The experiment was done in triplicate and the error bars indicate standard deviation. […] The” for “The”

LNCaP cells = assay: cell growth assay, LNCaP cells; type: cell-based; details: 5 μM SB216763, hormone-depleted medium with 1 nM R1881, 5 days
Method: as §1

[5] = CWR-R1 cells, 10 nM R1881, 20 μM SB415286 or 5 μM SB216763, 24 h

Compound: O=C1NC(=O)C(c2cn(CCCO)c3ncccc23)=C1c1cnccn1 [3-(1-(3-Hydroxypropyl)-1H-pyrrolo[2,3-b]pyridin-3-yl]-4-pyrazin-2-yl-pyrrole-2,5-dione]
- inhibition of the kinase panel [1]: minimally inhibits

Compound: Cc1cc(Nc2nc(-c3ccccc3)nc3ccccc23)n[nH]1 [5-Methyl-1H-pyrazol-3-yl)-(2-phenylquinazolin-4-yl)amine]
- Ki (GSK-3; ATP-binding site inhibitor): 24 nM

Compound: [Cl-].[Li+] [Lithium chloride, lithium chloride]
- IC50 value (GSK-3; in words): high
- inhibition of inositol monophosphatases relative to GSK-3 [2]: to a similar extent

Compound: C[C@]1(O)CC[C@H]2[C@@H]3CCC4=CC(=O)CCC4=C3C=C[C@@]21C [R1881, methyltrienolone]
- growth of 22Rv1 cells (22Rv1 cells; hormone-depleted medium, 10^−12 M or 10^−9 M R1881, 72 h): stimulated
- AR transcriptional activity [3]: increase

Compound: Cn1cc(C2=C(c3ccc(Cl)cc3Cl)C(=O)NC2=O)c2ccccc21 [SB216763]
- DU145 cell growth (number of cells) (DU145 cells): did not significantly affect
- β-catenin/Tcf-dependent transcriptional activity [4]: increased
- protein level of AR (AR protein): reduced
- PC3 cell growth (number of cells) (PC3 cells): did not significantly affect
- growth of CWR-R1 cells (number of cells) (CWR-R1 cells; 5 μM SB216763, normal growth medium, 72 h): significantly reduced
- CWR-R1 cell growth (number of cells) (CWR-R1 cells): repressed
- concentration at which inhibitory effects on cell growth were maximal (optimal dose) (CWR-R1 cells; CWR-R1 cells, 72 h, complete growth medium): 3 µM
- growth of 22Rv1 cells (number of cells) (22Rv1 cells; 5 μM SB216763, hormone-depleted medium with 1 nM R1881, 72 h): significantly reduced
- R1881-stimulated growth of 22Rv1 cells (22Rv1 cells; 5 μM SB216763, hormone-depleted medium with R1881, 72 h): blocked
- hormone-independent proliferation of 22Rv1 cells (22Rv1 cells; 5 μM SB216763, hormone-depleted medium, absence of hormone, 72 h): inhibited
- growth of LNCaP cells (number of cells) (LNCaP cells): significantly reduced; also recorded: weakly inhibited
- AR transcriptional activity [3, 5]: reduced

Compound: O=C1NC(=O)C(c2ccccc2[N+](=O)[O-])=C1Nc1ccc(O)c(Cl)c1 [SB415286]
- protein level of AR (AR protein): reduced
- CWR-R1 cell growth (number of cells) (CWR-R1 cells): repressed
- dose dependence of inhibitory effects on CWR-R1 cell growth (CWR-R1 cells; up to 50 μM, data not shown): increased with dose up to the maximal dose tested
- AR transcriptional activity [3, 5]: reduced

Compound: CHIR 98014
- Ki (human GSK-3): 0.87 nM
